The text below walks through data of patent publication US20130079370A1, “Method for the Inhibition of Deubiquitinating Activity” (priority 2011, published 2013).

One series has as its system HCT116 cells. Type of series: cell-based. Particulars: human. From the text: These findings indicate that high molecular weight ubiquitin substrate complexes accumulating as a result of DUB inhibition can generate strong cytotoxicity that is insensitive to Bcl-2 over-expression. [table]
Series [1] has as its system isogenic clones of HCT116 colon cancer cells. Particulars: literature refs (11, 12); cited from earlier work.

Regarding `CC(C)C[C@H](NC(=O)[C@H](Cc1ccccc1)NC(=O)c1cnccn1)B(O)O` [bortezomib, reference compound], in the series with HCT116 cells, the “Fold induction DNAJB1 (Hsp40B1)” value amounted to 5 fold, the “Fold induction HSPA1B” value amounted to 12 fold and the “Fold induction HSPA6 (Hsp70B′)” value was found to be 60 fold. Besides, the “sensitivity of apoptosis induction to apoptosis regulators” value in series [1] was “sensitive to the status of the p53 tumor suppressor and over-expression of the anti-apoptotic Bcl-2 oncoprotein”.
